Reference: US20020064883A1, “Measurement and quantification of 17 ketosteroid-sulfates as a biomarker of biological age” (priority 2000, published 2002)

System: Anabolic/Catabolic Index (ACI)
Experiment: Human clinical trial: effect of treatment on urinary Anabolic/Catabolic Index (ACI)
Type: in vivo
Procedure: The concentration of 17-KS-S in the sample was calculated from the ratio of the peak area of the compound of interest to that of the external standard multiplied by its concentration. The concentration of creatinine in urine was measured by a colorimetric method. The urinary Anabolic/Catabolic Index (ACI=X/Y) was calculated as a ratio of total 17-ketosteroid sulfate concentration (X, ng/μL) to creatinine concentration (Y, μg/μL).
There were two objectives in this example. The first was to investigate the ACI-age relationship using baseline information of ACI and the second was to investigate effects of four treatment groups on ACI.
There were 71 individuals for treatment allocation. They were identified with a number of 1 through 72 (69 was not used). Of these 71 individuals, five (subject identification numbers=3, 22, 24, 26 and 65) were not included in the data set of ACI measurements. Consequently, there were 66 individuals represented in the ACI information. Among the 66 individuals, three (subject ID=1, 9 and 60) had only baseline measurements. These three individuals contributed to the analysis of age/ACI relationship only. Therefore, the data set for looking at treatment effects consisted of 63 individuals. Not all of the 63 individuals have six serial observations.
A 24-hour urine specimen was collected from each individual before treatment. The urine specimens were quickly aliquoted, frozen, and immediately shipped on dry ice by overnight service for analysis. A ratio of total 17-ketosteroid sulfate concentration (ng/μL) to creatinine concentration (mg/mL) was calculated and expressed as ACI. Subsequent to treatment urine specimens were collected and analyzed at 24 hours. […] The fitted line has a negative slope (estimate of the slope is −0.061239 and is statistically significant from zero with p-value being equal to 0.0034.). Pearson correlation is estimated to be −0.35510 (p=0.0034). These findings indicate that ACI level decreases with ages between 40 and 65.
This part of the analysis was performed to determine if any of three different treatments affect the ACI level. That is to check whether the ACI level changes under and after termination of treatment. There were four treatment groups, referred to as groups 1-4. The individuals in Group 1 were given a placebo. The individuals in Group 2 were treated with 7-keto DHEA (25 mg/day dosage). The individuals in Group 3 were treated with Longevity Signal Formula (LSV) (2.008 mg/day dosage). The individuals in Group 4 were treated with Longevity Signal Formula (LSV) and Renewal Herbal Formula (Renewal).
FIG. 5 illustrates the plots of the individual profile for each treatment group for weeks 1-5. Each individual's serial observations are connected with a line to emphasize the trend over time. Measurements at week zero represent ACI prior treatment. Measurements at weeks 1-4 represent the ACI level after receiving treatments for 1-4 weeks respectively. Measurements at week 5 represent the ACI level three days after termination of treatment. FIG. 6 plots the mean responses at each point in time plus two standard errors.

## C[C@]12CC[C@H](O)CC1=CC(=O)[C@@H]1[C@@H]2CC[C@]2(C)C(=O)CC[C@@H]12 [7-keto DHEA]
Under treatment, weeks 1-4 vs baseline
  Effect of treatment on ACI level (in words): does not change the ACI level at all
Week 1 − week 0 (week 0 = baseline; paired t-test)
  Mean of difference in ACI: −0.04
Week 2 − week 0
  Mean of difference in ACI: 0.20
Week 2 − week 1
  Mean of difference in ACI: 0.23
Week 3 − week 0
  Mean of difference in ACI: −0.12
Week 3 − week 1
  Mean of difference in ACI: −0.08
Week 3 − week 2
  Mean of difference in ACI: −0.31
Week 4 − week 0
  Mean of difference in ACI: −0.12
Week 4 − week 1
  Mean of difference in ACI: −0.09
Week 4 − week 2
  Mean of difference in ACI: −0.32
Week 4 − week 3
  Mean of difference in ACI: −0.01
Week 5 − week 0 (week 5 = three days after termination of treatment)
  Mean of difference in ACI: −0.10
Week 5 − week 1
  Mean of difference in ACI: −0.07
Week 5 − week 2
  Mean of difference in ACI: −0.30
Week 5 − week 3
  Mean of difference in ACI: 0.01
Week 5 − week 4
  Mean of difference in ACI: 0.02
